How the values were obtained:
SKOV3 cells = experiment: Serum starved proliferation assay on the ovarian carcinoma SKOV3 cells (C3); type: cell-based; settings: Homo sapiens, SK-OV-3, 72 h, EGF stimulated (100 ng/ml, 72 hours, serum free) or 72 hours with compounds; MTT cell viability assay; read-out: SKOV3 cell (C3): pIC50 (converted)
Description: The ovarian carcinoma cell line (SKOV3) was used in an epidermal growth factor stimulated cell proliferation assay, to assess the inhibitory effect of the compounds on EGF in whole cells.
In a first step the SKOV3 cells were incubated for 24 hours in the presence of 10% FCS serum. In the second step the cells were incubated with the compounds to be tested in a serum free condition (37° C. and 5% (v/v) CO2) and subsequently stimulated for 72 hours with EGF at a final concentration of 100 ng/ml. The effect of the compounds on the EGF stimulation was finally assessed in a standard MTT cell viability assay.
Alternatively, the SKOV3 cells were incubated for 24 hours in the presence of 10% FCS serum. In the second step the cells were incubated for 72 hours with the compounds to be tested and the effect of the compounds on cell proliferation was finally assessed in a standard MTT cell viability assay.

EGFR = EGFR (Homo sapiens, UniProt P00533); experiment: In vitro inhibition of EGFR, Flash Plate or glass-fiber filter technology (C2); type: biochemical; design: 0.5 μg EGFR-kinase domain/well; settings: EGFR-kinase domain, 5.0 μM unlabeled ATP, read-out: Kinase activity.(C2): pIC50 (converted)
EGFR, sequence (P00533 712-979 limits assumed): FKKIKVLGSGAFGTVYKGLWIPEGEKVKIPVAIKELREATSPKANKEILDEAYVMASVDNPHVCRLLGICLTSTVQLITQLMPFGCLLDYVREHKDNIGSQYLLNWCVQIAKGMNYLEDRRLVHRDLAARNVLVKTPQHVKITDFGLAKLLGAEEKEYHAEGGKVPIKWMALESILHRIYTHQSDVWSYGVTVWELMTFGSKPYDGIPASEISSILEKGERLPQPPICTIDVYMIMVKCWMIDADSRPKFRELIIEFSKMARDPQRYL
Description: The in vitro inhibition of EGFR was assessed using either the Flash Plate technology or the glass-fiber filter technology as described by Davies, S. P. et al., Biochem J. (2000), 351; p. 95-105. The Flash Plate technology is generally described by B. A. Brown et al. in High Throughput Screening (1997), p. 317-328. Editor(s): Devlin, John P. Publisher: Dekker, New York, N.Y.
In the Flash Plate EGFR kinase reaction assay, a kinase substrate consisting of biotinylated poly(L-glutamic acid-L-tyrosine) (poly(GT)biotin), is incubated with the aforementioned protein in the presence of (^33P) radiolabeled ATP. (^33P) phosphorylation of the substrate is subsequently measured as light energy emitted using a streptavidin-coated Flash Plate (PerkinElmer Life Sciences) by trapping and quantifying the binding of the biotin tagged and radiolabeled substrate.
The EGFR kinase reaction is performed at 30° C. for 60 minutes in a 96-well microtiter FlashPlate (PerkinElmer Life Sciences). For each of the tested compounds a full dose response 1·10^−6M to 1·10^−10M has been performed. IRESSA° and Tarceva™ (erlotinib) were used as reference compounds. The 100 μl reaction volume contains 54.5 mM TrisHCl pH 8.0, 10 mM MgCl2, 100 μM Na3VO4, 5.0 μM unlabeled ATP, 1 mM DTT, 0.009% BSA, 0.8 μCi AT^33P, 0.35 μg/well poly(GT)biotin and 0.5 μg EGFR-kinase domain/well.
The reaction is stopped by aspirating the reaction mixture and washing the plate 3× with 200 μl wash/stop buffer (PBS+100 mM EDTA). After the final wash step 200 μl of wash/stop buffer was added to each well and the amount of phosphorylated (^33P) Poly(GT)biotin determined by counting (30 sec/well) in a microtiterplate scintillation counter.
In the glass-fiber filter technology EGFR kinase reaction assay, a kinase substrate consisting of poly(L-glutamic acid-L-tyrosine) (poly(GT)), is incubated with the aforementioned protein in the presence of (^33P) radiolabeled ATP. (^33P) Phosporylation of the substrate is subsequently measured as radioactivity bound on a glassfiber-filter.
The EGFR kinase reaction is performed at 25° C. for 10 minutes in a 96-well microtiterplate. For each of the tested compounds a full dose response 1·10^−6M to 1·10^−10M has been performed. IRESSA° and Tarceva™ (erlotinib) were used as reference compounds. The 25 μl reaction volume contains 60 mM TrisHCl pH 7.5, 3 mM MgCl2, 3 mM Mn Cl2, 3 μM Na3VO4, 50 μg/ml PEG20000, 5.0 μM unlabeled ATP, 1 mM DTT, 0.1 μCi AT^33P, 62.5 ng/well poly(GT) and 0.5 μg EGFR-kinase domain/well.
The reaction is stopped by adding 5 μl of a 3% phosphoric acid solution. 10 μl of the reaction mixture is then spotted onto a Filtermat A filter (Wallac) and washed 3 times for 5 min. in 75 mM phosphoric acid and 1 time for 5 min. in methanol prior to drying and quantification on the Typhoon (Amersham) using a LE phosphorage storage screen.

SMILES | IC50 (SKOV3 cells) [nM] | IC50 (EGFR) [nM]
COc1cc2ncnc3c2cc1OCCN(C(=O)CN1CCOCC1)CC(=O)NCCCc1ccc(Cl)cc1N3 [Compound 50, 4,6-ethanediylidenepyrimido[4,5-b][6,1,9,12]benzoxatriazacycloheptadecin-12(13H)-one, 19-chloro-8,9,10,11,14,15,16,21-octahydro-22-methoxy-10-(4-morpholinylacetyl)-] | 158 | 79.4
COc1cc2ncnc3c2cc1OCCN(C)CC(=O)NCCCc1ccc(Cl)cc1N3 [Compound 52, 4,6-ethanediylidenepyrimido[4,5-b][6,1,9,12]benzoxatriazacycloheptadecin-12(13H)-one, 19-chloro-8,9,10,11,14,15,16,21-octahydro-22-methoxy-10-methyl-] | 100 | 79.4
CCN1CCOc2cc3c(ncnc3cc2OC)Nc2cc(Cl)ccc2CCCNC(=O)C1 [Compound 53, 4,6-ethanediylidenepyrimido[4,5-b][6,1,9,12]benzoxatriazacycloheptadecin-12(13H)-one, 19-chloro-10-ethyl-8,9,10,11,14,15,16,21-octahydro-22-methoxy-] | 501 | 200
COc1cc2ncnc3c2cc1OCC1CCCN1CC(=O)NCCCc1ccc(Cl)cc1N3 (stereo not drawn) [Compound 54, 1,22-ethanediylidene-5H,17H-pyrimido[4,5-b]pyrrolo[2,1-h][6,1,9,12]benzoxatriazacycloheptadecin-14(15H)-one, 7-chloro-10,11,12,13,18,19,19a,20-octahydro-24-methoxy-] | 1260 | 126
COc1cc2ncnc3c2cc1OCCCNCC(=O)NCCCc1ccc(Cl)cc1N3 [Compound 55, 4,6-ethanediylidene-8H-pyrimido[4,5-b][6,1,10,13]benzoxatriazacyclooctadecin-13(14H)-one, 20-chloro-9,10,11,12,15,16,17,22-octahydro-23-methoxy-] | 200 | 501
COc1cc2ncnc3c2cc1OCC1CCCN(CC(=O)NCCCc2ccc(Cl)cc2N3)C1 (stereo not drawn) [Compound 56, 14H-4,6-ethanediylidene-9,13-methano-8H-pyrimido[4,5-b][6,1,12,15]benzoxatriazacycloeicosin-15(16H)-one, 22-chloro-9,10,11,12,17,18,19,24-octahydro-26-methoxy-] | 10000 | 1580
COc1cc2ncnc3c2cc1OCC1CCN(CC1)CC(=O)NCCCc1ccc(Cl)cc1N3 [Compound 57, 13H-4,6-ethanediylidene-9,12-ethanopyrimido[4,5-b][6,1,11,14]benzoxatriazacyclononadecin-14(15H)-one, 21-chloro-8,9,10,11,16,17,18,23-octahydro-26-methoxy-] | 398 | 6310
COc1cc2ncnc3c2cc1OCCC1CCN(CC1)CC(=O)NCCCc1ccc(Cl)cc1N3 [Compound 58, 14H-4,6-ethanediylidene-10,13-ethano-8H-pyrimido[4,5-b][6,1,12,15]benzoxatriazacycloeicosin-15(16H)-one, 22-chloro-9,10,11,12,17,18,19,24-octahydro-27-methoxy-] | 2000 | 2000
COc1cc2ncnc3c2cc1OCCCNC(=O)CNC(=O)Cc1ccc(Cl)cc1N3 [Compound 60, 4,6-ethanediylidenepyrimido[4,5-b][6,1,10,13]benzoxatriazacycloheptadecine-12,15-dione, 19-chloro-8,9,10,11,13,14,16,21-octahydro-22-methoxy-] | 2 | 15.8
COc1cc2ncnc3c2cc1OCCCCCNCc1cc(F)c(Br)cc1N3 [Compound 61, 4,6-ethenopyrimido[4,5-b][6,1,12]benzoxadiazacyclopentadecine, 17-bromo-16-fluoro-8,9,10,11,12,13,14,19-octahydro-20-methoxy-] | 398 | 15.8
COc1cc2ncnc3c2cc1OCCN(CCN1CCOCC1)C(=O)CNC(=O)Cc1ccc(Cl)cc1N3 [Compound 62, 4,6-ethanediylidene-8H-pyrimido[4,5-b][6,1,9,12]benzoxatriazacyclohexadecine-11,14-dione, 18-chloro-9,10,12,13,15,20-hexahydro-21-methoxy-10-[2-(4-morpholinyl)ethyl]-] | 5010 | 398
COCCN1CCOc2cc3c(ncnc3cc2OC)Nc2cc(Cl)ccc2CC(=O)NCC1=O [Compound 63, 4,6-ethanediylidene-8H-pyrimido[4,5-b][6,1,9,12]benzoxatriazacyclohexadecine-11,14-dione, 18-chloro-9,10,12,13,15,20-hexahydro-21-methoxy-10-(2-methoxyethyl)-] | 2000 | 126
COc1cc2ncnc3c2cc1OCCCCCCOc1cc(NC(=O)c2ccc(F)cc2)ccc1N3 [Compound 64, benzamide, 4-fluoro-N-(8,9,10,11,12,13-hexahydro-20-methoxy-4,6-ethanediylidene-19H-pyrimido[4,5-b][6,13,1]benzodioxaazacyclopentadecin-16-yl)-] | 398 | 1000
COc1cc2ncnc3c2cc1OCCNC(=O)C(CC(C)C)NC(=O)Cc1ccc(Cl)cc1N3 (stereo not drawn) [Compound 67, 4,6-ethanediylidene-8H-pyrimido[4,5-b][6,1,9,12]benzoxatriazacyclohexadecine-11,14-dione, 18-chloro-9,10,12,13,15,20-hexahydro-21-methoxy-12-(2-methylpropyl)-] | 501 | 100
COc1cc2ncnc3c2cc1OCCCNC(=O)C(CC(C)C)NC(=O)Cc1ccc(Cl)cc1N3 (stereo not drawn) [Compound 68, 4,6-ethanediylidenepyrimido[4,5-b][6,1,10,13]benzoxatriazacycloheptadecine-12,15-dione, 19-chloro-8,9,10,11,13,14,16,21-octahydro-22-methoxy-13-(2-methylpropyl)-] | 6.31 | 12.6
COc1cc2ncnc3c2cc1OCCCCNC(=O)CNCc1ccc(Cl)cc1N3 [Compound 101, 4,6-ethanediylidenepyrimido[4,5-b][6,1,11,14]benzoxatriazacycloheptadecin-13(8H)-one, 19-chloro-9,10,11,12,14,15,16,21-octahydro-22-methoxy-] | 31.6 | 251
COc1cc2ncnc3c2cc1OCCCCNC(=O)C1CCCN1Cc1cc(F)c(Cl)cc1N3 (stereo not drawn) [Compound 102, 4,6-ethanediylidenepyrimido[4,5-b]pyrrolo[2,1-m][6,1,11,14]benzoxatriazacycloheptadecin-13(8H)-one, 21-chloro-20-fluoro-9,10,11,12,13a,14,15,16,18,23-decahydro-24-methoxy-] | 50.1 | 200
COc1cc2ncnc3c2cc1OCCNC(=S)C1CCCN1Cc1cc(F)c(Cl)cc1N3 (stereo not drawn) [Compound 104, 4,6-ethanediylidenepyrimido[4,5-b]pyrrolo[2,1-k][6,1,9,12]benzoxatriazacyclopentadecine-11(8H)-thione, 19-chloro-18-fluoro-9,10,11a,12,13,14,16,21-octahydro-22-methoxy-] | 316 | 1000
